Data as given in patent US20260258029A1, “CHROMANE AMIDINE MONOBACTAM COMPOUNDS FOR THE TREATMENT OF BACTERIAL INFECTIONS” (priority 2022, published 2026).

How the values were obtained:
Type in all cases: cell-based
[1] = test system: Pseudomonas aeruginosa expressing AmpC (CL5701); assay: Growth inhibitory concentration (OD600), P. aeruginosa CL5701, with relebactam; details: lowest concentration inhibiting 95% of bacterial growth, BLi relebactam 4 μg/mL, 35±2° C., 22 hours
Description: (§1) The concentrations of compounds required to inhibit the growth of various strains of bacteria were determined in an assay that assessed bacterial growth by measuring optical density at 600 nm (OD600). The bacterial strains tested included the clinical strains Escherichia coli expressing NDM-1 (CLB30016), Klebsiella pneumoniae expressing KPC-1 (CL6569), Acinetobacter baumannii expressing TEM-1, AmpC, and Oxa-24/40 (CL6188) and Pseudomonas aeruginosa expressing AmpC (CL5701). All compounds were tested in the presence of a R lactamase inhibitor (BLi, Relebactam) in 384-well microplates.
(§2) The clinical strains were stored as frozen single use stocks, thawed and diluted into 1.1× cation-adjusted Mueller-Hinton II broth to achieve approximately 2×10^5 CFU/mL. Test compounds were dissolved in DMSO and diluted 1:50 in the assay, resulting in a final concentration range of 100 μM to 0.098 μM. On the day of the assay, 1 μL of test compound was added to the plate followed by 4 μL of 50 μg/mL BLi in MOPS buffer and 45 μL of diluted bacteria. Plates were centrifuged at 1000 rpm for 30 seconds, shaken at approximately 800 rpm for 1 minute, and incubated at 35±2° C. for 22 hours. The concentration of BLi used in the assay was 4 μg/mL. At the end of the incubation, absorbance at 600 nm was determined using a spectrophotometer. Inhibition was quantitated by identifying the lowest concentration of test compound that was required to inhibit 95% of the growth of the bacteria. The results for Examples 1-39 are reported in Table I, expressed as the concentration of compound that inhibited 95% of bacterial growth (Minimum Inhibitory Threshold Concentration; MITC95).

[2] = test system: Acinetobacter baumannii expressing TEM-1, AmpC, and Oxa-24/40 (CL6188); details: lowest concentration inhibiting 95% of bacterial growth; BLi relebactam 4 μg/mL; 35±2° C., 22 hours; OD600
Description: as §1, §2

[3] = test system: Escherichia coli expressing NDM-1 (CLB30016); assay: Growth inhibitory concentration (OD600), E. coli CLB30016, with relebactam; details: lowest concentration inhibiting 95% of bacterial growth, BLi relebactam 4 μg/mL, 35±2° C., 22 hours
Description: as §1, §2

Compound	PA—CL5701 MITC95 [1]	AB—CL6188 MITC95 [2]	EC—CLB30016 MITC95 [3]
CC1(C)[C@H](NC(=O)/C(=N\O[C@](C)(C(=O)O)[C@H]2CCc3cc(C(=N)NC[C@H]4C[C@@](N)(CO)C4)ccc3O2)c2csc(N)n2)C(=O)N1OS(=O)(=O)O [Compound 71, (S)-2-((R)-6-(N-(((1r,3R)-3-amino-3-(hydroxymethyl)cyclobutyl)methyl)-carbamimidoyl)-chroman-2-yl)-2-((((Z)-1-(2-aminothiazol-4-yl)-2-(((S)-2,2-dimethyl-4-oxo-1-(sulfooxy)-azetidin-3-yl)amino)-2-oxoethylidene)amino)oxy)propanoic acid]	1.563 µM	3.125 µM	6.25 µM
CC1(C)[C@H](NC(=O)/C(=N\O[C@](C)(C(=O)O)[C@H]2CCc3cc(C(=N)NC[C@H]4C[C@](N)(CO)C4)ccc3O2)c2csc(N)n2)C(=O)N1OS(=O)(=O)O [Compound 70, (S)-2-((R)-6-(N-(((1s,3S)-3-amino-3-(hydroxymethyl)cyclobutyl)methyl)-carbamimidoyl)-chroman-2-yl)-2-((((Z)-1-(2-aminothiazol-4-yl)-2-(((S)-2,2-dimethyl-4-oxo-1-(sulfooxy)-azetidin-3-yl)amino)-2-oxoethylidene)amino)oxy)propanoic acid]	1.563 µM	6.25 µM	6.25 µM
tert-butyl (S)-2-((((Z)-1-(2-((tert-butoxycarbonyl)amino)thiazol-4-yl)-2-(((S)-2,2-dimethyl-4-oxo-1-(sulfooxy)azetidin-3-yl)amino)-2-oxoethylidene)amino)oxy)-2-((R)-6-(N—(((S)-morpholin-2-yl)methyl)carbamimidoyl)chroman-2-yl)propanoate [Compound 32]	3.125 µM	12.5 µM	6.25 µM
